According to PubChem BioAssay (NCI):
Values joined by “and” are separate entries in the source; they are usually repeats but may differ in a detail not shown here. Identical values can stand only once.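 Briefly, cells in 96-well plates were exposed to five compound concentrations for 48 h, and endpoints were estimated by linear interpolation. Here, GI50 denotes the concentration required for 50% inhibition of growth. TGI: total growth inhibition.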

Columns and labels:
Assay in all cases: NCI tumour cell line growth inhibition, 48 h
MALME-3M melanoma = tested on: MALME-3M melanoma
IGROV1 ovarian = tested on: IGROV1 ovarian
MDA-MB-231 breast = tested on: MDA-MB-231 breast
MCF7 breast = tested on: MCF7 breast
SK-OV-3 ovarian = tested on: SK-OV-3 ovarian
SK-MEL-2 melanoma = tested on: SK-MEL-2 melanoma
CAKI-1 renal = tested on: CAKI-1 renal
K-562 leukemia = tested on: K-562 leukemia
MOLT-4 leukemia = tested on: MOLT-4 leukemia
OVCAR-3 ovarian = tested on: OVCAR-3 ovarian

Compound | GI50 (MALME-3M melanoma) | TGI (MALME-3M melanoma) | GI50 (IGROV1 ovarian) | TGI (IGROV1 ovarian) | GI50 (MDA-MB-231 breast) | TGI (MDA-MB-231 breast) | GI50 (MCF7 breast) | TGI (MCF7 breast) | GI50 (SK-OV-3 ovarian) | TGI (SK-OV-3 ovarian) | GI50 (SK-MEL-2 melanoma) | TGI (SK-MEL-2 melanoma) | GI50 (CAKI-1 renal) | TGI (CAKI-1 renal) | GI50 (K-562 leukemia) | TGI (K-562 leukemia) | GI50 (MOLT-4 leukemia) | TGI (MOLT-4 leukemia) | GI50 (OVCAR-3 ovarian) | TGI (OVCAR-3 ovarian)
Cc1ccc(F)cc1NC(=O)c1cc(Cl)ccc1Nc1ccccc1 | > 100 µM | > 100 µM | > 100 µM | > 100 µM | 6.96 µM | > 100 µM | > 100 µM | > 100 µM | > 100 µM | > 100 µM | > 100 µM | > 100 µM | > 100 µM | > 100 µM | 67.6 µM | > 100 µM | 37.9 µM | > 100 µM | > 100 µM | > 100 µM
CN1CCC(n2[nH]c(-c3ccccc3)c(Cc3ccccc3)c2=O)CC1 |  | > 100 µM |  | > 100 µM |  | > 100 µM |  | > 100 µM |  | > 100 µM |  | > 100 µM |  | > 100 µM |  | > 100 µM |  | 89.7 µM |  | > 100 µM
c1cncc(CNc2ncn[nH]2)c1 |  | > 100 µM |  | > 100 µM |  | > 100 µM |  | > 100 µM |  | > 100 µM |  | > 100 µM |  | > 100 µM |  | > 100 µM |  | > 100 µM |  | > 100 µM
C=C(C)[C@@H]1CC[C@]2(C(=O)NCCNCCNCCN)CC[C@]3(C)[C@H](CC[C@@H]4[C@@]5(C)CCC(=O)C(C)(C)[C@@H]5CC[C@]43C)[C@@H]12 | 7.4 µM | 16.5 µM | 6.42 µM | 14.4 µM | 8.04 µM | 15.8 µM | 7.38 µM | 15.5 µM | 10.6 µM | 25.9 µM | > 50 µM | > 50 µM | 5.87 µM | 13.1 µM | 8.2 µM | 21.8 µM | 6.96 µM | 31.1 µM | 7.65 µM | 15 µM
COc1ccc(-n2c3c(c4c(CN(C)C)c(O)c(C)cc42)CCc2ccccc2C3=O)cc1 | 25.4 µM | > 100 µM | 21 µM | 85.2 µM | 25 µM | 90.1 µM | > 100 µM | > 100 µM | > 100 µM | > 100 µM | 48 µM | > 100 µM | 24.5 µM | > 100 µM | 18.7 µM | 44.4 µM | 22.9 µM | 65.7 µM | 34.2 µM | 97.2 µM
C[C@@H]1COC(Nc2ccc3ncnc(Nc4ccc(OCc5nccs5)c(Cl)c4)c3c2)=N1 | > 10 µM and 4.49 µM | > 10 µM and 18.5 µM | 1.09 µM and 0.544 µM | > 10 µM and 8.03 µM | 6.04 µM and 8.22 µM | > 10 µM and 27.2 µM | 4.97 µM and 5.73 µM | > 10 µM and 24 µM | 0.167 µM and 0.178 µM | > 10 µM and 14.4 µM | 4.43 µM and 3.47 µM | > 10 µM and 11.1 µM | 2.24 µM and 0.685 µM | > 10 µM and 15.1 µM | 4.05 µM and 4.08 µM | > 10 µM and 33.2 µM | 3.38 µM and 2.87 µM | > 10 µM and 8.72 µM | 2.07 µM and 2.67 µM | > 10 µM and 14.2 µM
Cc1cc2nc3c4cccc(O)c4n(CCN(C)C)c3nc2cc1C | 1.64 µM | 3.42 µM | 1.32 µM | 10.8 µM | 2.04 µM | 5.63 µM | 1.36 µM | 5.08 µM | 3.04 µM | 14.6 µM | 1.93 µM | 4.22 µM | 1.35 µM | 3.89 µM | 1.24 µM | 4.77 µM | 0.443 µM | 8.98 µM | 3.11 µM | 15.7 µM
